Test results reported in patent US10212937B2, “Microbicidal aqueous solutions including a monochloramine and a peracid, and methods of using the same” (priority 2015, dated 2019).

How the values were obtained:
[1] = test system: Enterobacter aerogenes; assay: Microbicidal evaluation in nutrient broth, lowest concentration completely preventing growth, Kull synergism calculation; format: cell-based; conditions: contact time 15 hours
Description: (§1) Nutrient broth (2.5 g/liter of deionized water) was prepared and dispensed in 5 ml amounts into test tubes and autoclaved for 20 minutes at 121° C. The biocides were added to the test tubes in the desired concentrations, and then 100 microliters of a 24-hour grown suspension of Pseudomonas aeruginosa or Enterobacter aerogenes cells were added to the respective test tubes to give a final count of approximately 10^6 cfu/ml and incubated at 37° C. at the indicated contact times.
(§2) End points for the various mixtures were then compared with the end points for the pure active ingredients alone in concomitantly prepared flasks or test tubes.
(§3) which produced an end point.
(§4) Qb=Lowest concentration of compound B in parts per million, acting alone,
(§5) QA=Lowest concentration of compound A in parts per million, in the mixture,
(§6) QB=Lowest concentration of compound B in parts per million, in the mixture,
(§7) When the sum of QA/Qa and QB/Qb is greater than one, antagonism is indicated. When the sum is equal to one, additivity is indicated. When the sum is less than one, synergism exists.
Contact time was 15 hours. The MCA was obtained by combinations of ammonium sulfate in the form of Oxamine 6150 or Busan 1215 (all from Buckman Laboratories, Memphis, Tenn.) and the oxidant, Bulab 6004 (from Buckman Laboratories). The peracetic acid was from Sigma-Aldrich (32 wt. % in dilute acetic acid) which was diluted in deionized water to desired concentration range prior to adding it to the test systems.

[2] = test system: Pseudomonas aeruginosa; assay: as above; format: cell-based; conditions: contact time 24 hours, 37° C., approx. 10^6 cfu/ml, complete prevention of growth
Description: as §1, §2, §3, §4, §5, §6, §7
Contact time was 24 hours. The MCA and peracetic acid were obtained in the same manner as Example 1.

[3] = 37° C., approx. 10^6 cfu/ml, complete prevention of growth

| SMILES | Qa, concentration of compound A acting alone which produced an end point [1, 3] | Qa, concentration of compound A acting alone which produced an end point [2] | QB/Qb [1] | Qb, lowest concentration of compound B acting alone which produced an end point [1, 3] | Qb, lowest concentration of compound B acting alone which produced an end point [2] |
| --- | --- | --- | --- | --- | --- |
| CC(=O)OO [peracetic acid] | 25.0 ppm | 10 ppm |  |  |  |
| NCl [monochloramine] |  |  | 0.5 | 100 ppm | 50 ppm |
